Test results from PMC12163485 (Drug Metabolism and Disposition, 2025).
Where “and” joins values, the source holds several entries; their conditions need not be identical. Equal entries are not always repeated. Where two headings read alike, the source gives them in different places.

Legend:
human MATE1 (hMATE1) = target: T1, human MATE1 (hMATE1) (Homo sapiens, UniProt Q96FL8); test: Uptake of the extended cocktail by HEK293 cells overexpressing hMATE1; assay type: in vitro ADME; conditions: Fig. 6, uptake 1 minute after NH4Cl preincubation
T1 sequence (Q96FL8 1-570): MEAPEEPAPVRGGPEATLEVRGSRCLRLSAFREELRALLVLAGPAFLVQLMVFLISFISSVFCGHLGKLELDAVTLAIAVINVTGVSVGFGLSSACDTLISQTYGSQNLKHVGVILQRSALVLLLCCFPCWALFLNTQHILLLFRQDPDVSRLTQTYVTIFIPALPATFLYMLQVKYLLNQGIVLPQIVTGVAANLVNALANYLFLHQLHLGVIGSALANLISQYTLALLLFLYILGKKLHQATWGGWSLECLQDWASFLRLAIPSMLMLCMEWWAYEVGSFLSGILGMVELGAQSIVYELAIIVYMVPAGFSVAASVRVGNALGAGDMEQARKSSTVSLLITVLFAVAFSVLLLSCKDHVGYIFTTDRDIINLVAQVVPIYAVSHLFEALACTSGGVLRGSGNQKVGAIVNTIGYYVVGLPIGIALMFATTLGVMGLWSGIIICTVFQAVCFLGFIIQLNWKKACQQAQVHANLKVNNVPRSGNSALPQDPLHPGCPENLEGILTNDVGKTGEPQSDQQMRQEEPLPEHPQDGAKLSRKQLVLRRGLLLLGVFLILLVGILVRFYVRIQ

[1] = cited from earlier work; for cmax = Imax: dose and route as in Supplemental Table 4, ref Hardman, 2018, fenoterol Tzvetkov et al; for cmax = Imax / fraction unbound: ipratropium Zhang et al, 2023; for fraction unbound: fraction unbound in plasma, ref Hardman, 2018, Lombardo et al (2018), fenoterol Tzvetkov et al; for tmax: p.o., ref Hardman, 2018
human OCT1 (hOCT1) [2] = target: T2, human OCT1 (hOCT1) (Homo sapiens, UniProt O15245)
T2 sequence (O15245 1-554): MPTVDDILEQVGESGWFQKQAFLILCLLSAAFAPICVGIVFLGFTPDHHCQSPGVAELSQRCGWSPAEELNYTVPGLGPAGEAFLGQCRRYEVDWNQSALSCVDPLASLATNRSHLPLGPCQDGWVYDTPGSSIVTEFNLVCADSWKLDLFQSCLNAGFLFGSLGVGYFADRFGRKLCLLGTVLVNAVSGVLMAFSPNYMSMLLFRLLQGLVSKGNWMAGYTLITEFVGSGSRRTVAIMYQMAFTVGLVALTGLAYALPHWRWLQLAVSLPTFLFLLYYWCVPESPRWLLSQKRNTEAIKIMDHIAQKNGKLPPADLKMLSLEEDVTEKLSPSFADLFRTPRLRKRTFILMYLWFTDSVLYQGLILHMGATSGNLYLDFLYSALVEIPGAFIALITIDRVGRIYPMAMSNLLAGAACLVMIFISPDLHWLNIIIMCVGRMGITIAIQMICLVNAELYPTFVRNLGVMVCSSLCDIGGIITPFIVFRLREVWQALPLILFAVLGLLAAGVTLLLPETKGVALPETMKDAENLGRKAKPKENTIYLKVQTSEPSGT
Protocol: (§2) The kinetic transport parameters KM and vmax as well as the half-maximal inhibitory concentration (IC50) were calculated using GraphPad Prism version 8.0.2 (GraphPad Software, Inc). KM and vmax were calculated using nonlinear regression to the Michaelis-Menten equation.

[3] = Pharmacokinetic parameters used for estimating the potential for DDIs; assay type: in vivo, human; conditions: human; for k el: po
Protocol: Ka was calculated manually based on available pharmacokinetic parameters.

OCT1 [4] = target: T3, OCT1 (Homo sapiens, UniProt O15245); test: DDI risk R calculated from IC50 at human OCT1; conditions: R=1+fup×Iin,max/IC50, cutoff R ≥ 1.1
T3 sequence (O15245 1-554): T2 sequence (O15245 1-554)
Protocol: (§3) Ka was calculated manually based on available pharmacokinetic parameters. Qh was set to 97 L/h and Fa was assumed as 1.

human OCT1 (hOCT1) [5] = target: T2, human OCT1 (hOCT1); test: Inhibition of OCT1-mediated uptake of the cocktail substrates in HEK293 cells overexpressing human OCT1; conditions: human OCT1, mean ± SD
Protocol: as §2

human MATE2K (hMATE2K) = human MATE2K (hMATE2K) (Homo sapiens, UniProt Q86VL8); test: Uptake of the extended cocktail by HEK293 cells overexpressing hMATE2K; assay type: in vitro ADME; conditions: Fig. 6, uptake 1 minute after NH4Cl preincubation
OCT1 [6] = conditions: ref Tzvetkov et al, 2018 (fenoterol); Matthaei et al, 2016 (sumatriptan); cited from earlier work
mOct1 = test system: mOct1; design: method as in ref column References of Table 2 (Morse et al, 2020; Jensen et al, 2020; Meyer et al, 2022); conditions: literature values; References of Table 2 (Morse et al, 2020; Jensen et al, 2020; Meyer et al, 2022); cited from earlier work
human OCT1 (hOCT1) [7] = target: T2, human OCT1 (hOCT1); design: expressed in transfected cells; empty vector control pcDNA5; method as in ref column References of Table 2 (Tzvetkov et al, 2018; Morse et al, 2020; Jensen et al, 2020; Meyer et al, 2019, 2022; Wittern et al, 2024 and own unpublished data; Elsby et al, 2017); conditions: literature values; References of Table 2 (Tzvetkov et al, 2018; Morse et al, 2020; Jensen et al, 2020; Meyer et al, 2019, 2022; Wittern et al, 2024 and own unpublished data; Elsby et al, 2017); cited from earlier work
OCT1 [8] = target: T3, OCT1
Protocol: as §3

OCT1 [9] = target: T3, OCT1; test: Uptake of the cocktail by HEK293 cells overexpressing human OCT1; conditions: cocktail
Protocol: (§1) Significance was calculated using Mann–Whitney U test. n = 5–8 independent experiments.

mouse OCT1 = target: T4, mouse OCT1 (Mus musculus, UniProt O08966); test: Uptake of the cocktail by HEK293 cells overexpressing mouse Oct1
T4 sequence (O08966 1-556): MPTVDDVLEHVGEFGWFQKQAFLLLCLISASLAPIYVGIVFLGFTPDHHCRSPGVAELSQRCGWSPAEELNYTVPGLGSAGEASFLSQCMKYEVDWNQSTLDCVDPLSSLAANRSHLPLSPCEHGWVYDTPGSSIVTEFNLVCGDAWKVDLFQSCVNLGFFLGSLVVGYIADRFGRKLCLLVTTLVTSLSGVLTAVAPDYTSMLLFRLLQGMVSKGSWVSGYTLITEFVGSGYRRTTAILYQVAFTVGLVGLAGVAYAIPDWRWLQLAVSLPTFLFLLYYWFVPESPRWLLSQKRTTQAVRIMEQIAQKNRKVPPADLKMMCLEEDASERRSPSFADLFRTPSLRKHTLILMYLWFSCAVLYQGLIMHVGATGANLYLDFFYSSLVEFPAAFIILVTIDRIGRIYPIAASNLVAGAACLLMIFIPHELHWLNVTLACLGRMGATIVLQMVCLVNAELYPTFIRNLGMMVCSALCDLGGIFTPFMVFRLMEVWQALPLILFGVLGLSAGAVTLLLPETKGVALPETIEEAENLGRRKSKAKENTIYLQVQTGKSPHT
Protocol: as §1

human OCT1 (hOCT1) [10] = target: T2, human OCT1 (hOCT1); test: Transport kinetics (KM, vmax) of OCT1-mediated uptake, HEK293 cells overexpressing human OCT1; assay type: in vitro ADME; design: expressed in transfected cells; empty vector control pcDNA5; conditions: mean ± SD; for vmax: hOCT1; for Km at 2 min: human, HEK293 cells stably overexpressing human OCT1, pH 7.4, hOCT1
Protocol: To validate the cocktail, we analyzed whether the combination of all substrates in a cocktail affected their individual transport kinetics in terms of KM and vmax. […] To measure the transport kinetics for a single substrate in the cocktail, we increased the concentration of 1 substrate while keeping the concentrations of the other substrates in the cocktail constant. The resulting KM and vmax values were compared with those obtained when each substrate was tested alone (Fig. 2; Supplemental Table 5).

[11] = fold change to the negative control, n = 12

human MATE2K (hMATE2K), sequence (Q86VL8 1-566 isoform Q86VL8-3): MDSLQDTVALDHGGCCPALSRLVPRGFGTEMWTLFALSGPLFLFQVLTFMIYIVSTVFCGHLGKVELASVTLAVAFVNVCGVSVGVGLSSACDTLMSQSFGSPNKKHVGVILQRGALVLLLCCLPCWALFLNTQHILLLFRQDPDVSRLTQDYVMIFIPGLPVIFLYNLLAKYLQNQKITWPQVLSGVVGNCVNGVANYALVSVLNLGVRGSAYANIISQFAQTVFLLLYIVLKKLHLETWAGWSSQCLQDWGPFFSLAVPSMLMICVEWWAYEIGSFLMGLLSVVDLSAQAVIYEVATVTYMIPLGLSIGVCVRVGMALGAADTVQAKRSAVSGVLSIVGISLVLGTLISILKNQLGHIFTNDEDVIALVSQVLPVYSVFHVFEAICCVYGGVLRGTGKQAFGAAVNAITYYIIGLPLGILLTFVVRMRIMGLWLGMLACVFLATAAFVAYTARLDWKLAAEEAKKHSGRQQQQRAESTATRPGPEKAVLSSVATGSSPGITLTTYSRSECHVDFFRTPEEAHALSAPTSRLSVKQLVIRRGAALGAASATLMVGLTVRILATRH

For `CNS(=O)(=O)Cc1ccc2[nH]cc(CCN(C)C)c2c1` [Sumatriptan, sumatriptan], the “transport by MATE1” value (human MATE1 (hMATE1)) is listed as “by far the strongest transport activity”, the “cmax = Imax” value [1] is listed as 54 ng/mL and the fraction unbound [1] is listed as 0.79. For the same compound, the tmax [1] was 1.50 h, the t1/2 ([1]; ref Hardman, 2018, fenoterol Tzvetkov et al) was 1.00 h and the IC50 (human OCT1 (hOCT1) [2]) was 604 µM and 628 µM. For the same compound, the “I max, portal, u” value ([3]; in vivo) was 1.91 µM, the “Imax, portal” value ([3]; in vivo) was 714.8 ng/mL and the ka ([3]; in vivo) was 0.64 h⁻¹. For the same compound, the k el ([3]; plasma, read-out: ke (converted)) was 0.000192 s⁻¹, the “DDI risk R, victim drug fenoterol” value (OCT1 [4]) was 1.00 and the “DDI risk R, victim drug ipratropium” value (OCT1 [4]) was 1.01. The “DDI risk R, victim drug metformin” value (OCT1 [4]) was 1.00, the “DDI risk R, victim drug methylnaltrexone” value (OCT1 [4]) was 1.00 and the “DDI risk R, victim drug salbutamol” value (OCT1 [4]) was 1.00. For the same compound, the “DDI risk R, victim drug zolmitriptan” value (OCT1 [4]) was 1.00, the IC50 (human OCT1 (hOCT1) [5]; IC50 for inhibition of fenoterol uptake, substrate (victim) fenoterol 0.5 μM in cocktail) was 482 ± 42.9 µM and the IC50 (human OCT1 (hOCT1) [5]; IC50 for inhibition of ipratropium uptake, substrate (victim) ipratropium 0.5 μM in cocktail) was 207 µM. The IC50 (human OCT1 (hOCT1) [5]; IC50 for inhibition of methylnaltrexone uptake, substrate (victim) methylnaltrexone 1 μM in cocktail) was 448 ± 40.9 µM, the IC50 (human OCT1 (hOCT1) [5]; IC50 for inhibition of trospium uptake, substrate (victim) trospium 0.1 μM in cocktail) was 270 ± 42.6 µM and the IC50 (human OCT1 (hOCT1) [5]; IC50 for inhibition of zolmitriptan uptake, substrate (victim) zolmitriptan 0.5 μM in cocktail) was 506 ± 36.2 µM. For the same compound, the “transport by MATE2K” value (human MATE2K (hMATE2K)) was “by far the strongest transport activity”, the “increase in systemic exposure in individuals homozygous for OCT1 loss-of-function genetic variants” value (OCT1 [6]) was 2 fold and the Km (mOct1) was 65.7 µM. The Km (human OCT1 (hOCT1) [7]) was 55.8 µM, the “DDI risk R, victim drug trospium” value (OCT1 [8]) was 1.01 and the “human OCT1 uptake [fold change to pcDNA5]” value (OCT1 [9]; [11]) was 15.3 fold change to pcDNA5. The “uptake stronger in human than in mouse OCT1” value (OCT1 [9]; ratio human/mouse) was 2 fold and the “mouse Oct1 uptake [fold change to pcDNA5]” value (mouse OCT1; [11]) was 7.8 fold change to pcDNA5.
With `CN(C)C(=N)N=C(N)N` [Metformin, metformin] the vmax (human OCT1 (hOCT1) [10]; substrate tested alone) was 6999 ± 2065 pmol x min^-1 x mg protein^-1, the vmax (human OCT1 (hOCT1) [10]; substrate tested in cocktail) was 5251 ± 1311 pmol x min^-1 x mg protein^-1 and the Km at 2 min (human OCT1 (hOCT1) [10]; substrate tested alone) was 1380 ± 512 µM. The Km at 2 min (human OCT1 (hOCT1) [10]; substrate tested in cocktail) was 2000 ± 338 µM, the “transport by MATE1” value (human MATE1 (hMATE1)) was “by far the strongest transport activity” and the “cmax = Imax” value [1] was 1600 ng/mL. For the same compound, the fraction unbound [1] was 1, the tmax [1] was 1.90 h and the “I max, portal, u” value ([3]; in vivo) was 39.48 µM. For the same compound, the “Imax, portal” value ([3]; in vivo) was 5100 ng/mL, the k el ([3]; in vivo) was 0.000111 s⁻¹ and the “DDI risk R, victim drug fenoterol” value (OCT1 [4]) was 1.00. The “DDI risk R, victim drug ipratropium” value (OCT1 [4]) was 1.01, the “DDI risk R, victim drug methylnaltrexone” value (OCT1 [4]) was 1.01 and the “DDI risk R, victim drug salbutamol” value (OCT1 [4]) was 1.00. For the same compound, the “DDI risk R, victim drug sumatriptan” value (OCT1 [4]) was 1.01, the “DDI risk R, victim drug zolmitriptan” value (OCT1 [4]) was 1.00 and the “transport by MATE2K” value (human MATE2K (hMATE2K)) was “by far the strongest transport activity”. For the same compound, the Km (mOct1) was 491 µM, the Km (human OCT1 (hOCT1) [7]) was 3030 µM and the “DDI risk R, victim drug trospium” value (OCT1 [8]) was 1.00. The “uptake stronger in mouse than in human OCT1” value (mouse OCT1; ratio mouse/human) was 5.1 fold.
